Measured values taken from paper PMC3254106 (ACS medicinal chemistry letters, 2011).

Experiments:
AXL kinase = target: T1, AXL kinase (Homo sapiens, UniProt P30530); assay: AXL kinase biochemical assay
T1 sequence (P30530 26-894): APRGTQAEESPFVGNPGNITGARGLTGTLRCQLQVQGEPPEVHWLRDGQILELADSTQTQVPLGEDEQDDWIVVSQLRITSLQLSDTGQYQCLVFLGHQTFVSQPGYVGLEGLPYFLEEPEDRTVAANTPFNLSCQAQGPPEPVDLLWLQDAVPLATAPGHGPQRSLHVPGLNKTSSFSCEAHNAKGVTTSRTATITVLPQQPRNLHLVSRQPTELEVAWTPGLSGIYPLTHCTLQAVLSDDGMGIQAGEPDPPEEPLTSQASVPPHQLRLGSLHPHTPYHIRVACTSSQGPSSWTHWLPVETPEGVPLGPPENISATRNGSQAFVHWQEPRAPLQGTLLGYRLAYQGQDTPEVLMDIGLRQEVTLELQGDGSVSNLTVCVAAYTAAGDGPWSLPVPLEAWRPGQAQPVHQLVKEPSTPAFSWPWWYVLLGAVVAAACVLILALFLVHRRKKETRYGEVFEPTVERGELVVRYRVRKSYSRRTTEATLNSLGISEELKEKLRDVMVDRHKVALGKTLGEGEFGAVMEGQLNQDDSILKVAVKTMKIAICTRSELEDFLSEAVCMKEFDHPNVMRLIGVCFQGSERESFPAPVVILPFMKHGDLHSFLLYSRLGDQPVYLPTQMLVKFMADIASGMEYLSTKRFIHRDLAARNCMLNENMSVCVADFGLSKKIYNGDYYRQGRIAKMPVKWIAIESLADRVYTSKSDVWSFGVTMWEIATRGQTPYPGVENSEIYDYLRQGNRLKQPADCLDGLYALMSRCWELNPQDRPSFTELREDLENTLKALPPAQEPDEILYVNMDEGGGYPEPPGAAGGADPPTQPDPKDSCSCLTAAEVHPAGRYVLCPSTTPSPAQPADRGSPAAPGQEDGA

Aurora = Aurora activity of analogues; type: biochemical
panel of 75 kinases = assay: Kinase panel profiling at 200 nM; conditions: 200 nM profiling
[1] = test system: Pancreatic cancer cells (PSN-1); assay: Cell cycle analysis, propidium iodide flow cytometry; type: cell-based; conditions: PSN-1, 30 nM, 24 hours

## CN1CCN(c2ccc(Nc3nc(-c4ccc(F)c(Cl)c4)cc(-c4ccc[nH]4)n3)cc2F)CC1 [Compound 1]
AXL kinase
  IC50: 33 µM

## CN1CCN(Cc2ccc(Nc3ncc(Cl)c(-c4ccc(F)cc4S(=O)(=O)N(C)C)n3)cc2)CC1 [Compound 26]
Aurora
  Aurora activity: strong aurora activity

## CN1CCN(Cc2ccc(Nc3ncc(F)c(-c4ccc(F)cc4S(=O)(=O)N4CCCC4)n3)cc2)CC1 [Compound 16]
Aurora
  Aurora activity: strong aurora activity

## Cc1cnc(Nc2ccc(CN3CCN(C)CC3)cc2)nc1-c1ccc(F)cc1S(=O)(=O)N1CCCC1 [Compound 15]
Aurora
  Aurora activity: strong aurora activity

## CN1CCN(c2ccc(Nc3nc(-c4ccc(F)c(Cl)c4)cc(-c4ccc(F)c(Cl)c4)n3)cc2F)CC1 [Compound 2]
AXL kinase
  IC50: 47 µM

## CN1CCN(Cc2ccc(Nc3ncc(Cl)c(Nc4ccccc4S(=O)(=O)N(C)C)n3)cc2)CC1 [Compound 13]
Panel of 75 kinases
  activity against MER, TYRO3, Aurora A and B, JAK2, ALK, ABL1 and CHEK1: strong activity
[1]
  G2/M (4N) population of cells: significant increase
  cells with ≥4N DNA (8N peak, endoreduplication): accumulation of cells with ≥4N DNA

## CN1CCN(Cc2ccc(Nc3ncc(Cl)c(-c4ccc(F)cc4S(=O)(=O)N4CCCC4)n3)cc2)CC1 [Compound 27]
Aurora
  Aurora activity: strong aurora activity
